This note sets out measurements from US20240043427A1 (Gilead Sciences, Inc., priority 2020, published 2024).

The target in experiment [1] is T1, CD73 (Homo sapiens (Human), UniProt P21589). As to the kind of experiment: MDA-MB-231 Cell Based CD73 Activity Assay (DMEM). Conditions: MDA-MB-231-GFP cells, DMEM medium with 10% human plasma, 200 uM AMP.
For experiment [2], the target named is T1, CD73. The experiment is classed as biochemical. Conditions: 1 mM NaH2PO4 in enzyme buffer, CD73 0.3 nM, AMP 15 uM.

Where only a bound is given, the exact number is not on record here.

T1 sequence (P21589 27-574): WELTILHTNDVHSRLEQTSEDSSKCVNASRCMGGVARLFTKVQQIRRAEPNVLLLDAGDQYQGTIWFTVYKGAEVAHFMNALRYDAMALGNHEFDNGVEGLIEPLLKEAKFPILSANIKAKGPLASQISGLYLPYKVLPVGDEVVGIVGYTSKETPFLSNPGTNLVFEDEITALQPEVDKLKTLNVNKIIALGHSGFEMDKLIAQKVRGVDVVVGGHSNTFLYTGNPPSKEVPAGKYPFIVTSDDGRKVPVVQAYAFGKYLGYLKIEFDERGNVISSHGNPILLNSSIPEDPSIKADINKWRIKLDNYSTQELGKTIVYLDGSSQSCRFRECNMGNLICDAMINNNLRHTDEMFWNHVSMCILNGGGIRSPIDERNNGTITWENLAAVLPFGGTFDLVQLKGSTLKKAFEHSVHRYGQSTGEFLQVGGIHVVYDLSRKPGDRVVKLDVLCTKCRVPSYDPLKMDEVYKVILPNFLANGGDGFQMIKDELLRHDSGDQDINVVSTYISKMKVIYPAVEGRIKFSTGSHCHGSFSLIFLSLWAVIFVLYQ

What is called EC50 is the concentration needed to bring the measured effect to its halfway point. A low value points to a more potent agent. As a reminder, the IC50 is the concentration that inhibits the measured activity by half. In turn, `O=c1[nH]cc(-c2cc(N3CC(Oc4cnc(C(F)(F)F)cn4)C(F)(F)C3)c3nccn3n2)c(=O)[nH]1` (stereo not shown) [Example 340, 5-(8-(3,3-difluoro-4-((5-(trifluoromethyl)pyrazin-2-yl)oxy)pyrrolidin-1-yl)imidazo[1,2-b]pyridazin-6-yl)pyrimidine-2,4(1H,3H)-dione] had an EC50 in experiment [1] of 19 nM. This compound also had an IC50 in experiment [2] of 1.48 nM.

Consider `O=c1[nH]cc(-c2cc(N3C[C@H](Oc4cc(C(F)F)ccn4)C(F)(F)C3)c3nccn3n2)c(=O)[nH]1` [Example 341, (S)-5-(8-(4-((4-(difluoromethyl)pyridin-2-yl)oxy)-3,3-difluoropyrrolidin-1-yl)imidazo[1,2-b]pyridazin-6-yl)pyrimidine-2,4(1H,3H)-dione], for which the midpoint of the response in experiment [1], the EC50, lay at 0.53 nM. In experiment [2], the IC50 was 0.43 nM.

As to `N#Cc1ccnc(O[C@H]2CN(c3cc(-c4c[nH]c(=O)[nH]c4=O)nn4ccnc34)CC2(F)F)c1` [Example 342, 2-[(3S)-1-[6-(2,4-dioxo-1H-pyrimidin-5-yl)imidazo[1,2-b]pyridazin-8-yl]-4,4-difluoro-pyrrolidin-3-yl]oxypyridine-4-carbonitrile], the EC50 in experiment [1] worked out at 3.82 nM. This compound returned an IC50 in experiment [2] of 1.4 nM.

`O=c1[nH]cc(-c2cc(N3CC(OC(F)F)C4(CC4)C3)c3nccn3n2)c(=O)[nH]1` (stereo not shown) [Example 343, 5-[8-[7-(difluoromethoxy)-5-azaspiro[2.4]heptan-5-yl]imidazo[1,2-b]pyridazin-6-yl]-1H-pyrimidine-2,4-dione] returned an EC50 in experiment [1] of 129 nM. In experiment [2], this compound returned an IC50 of 48.2 nM.

As to `O=c1[nH]cc(-c2cc(N3CC(O)C4(CC4)C3)c3nccn3n2)c(=O)[nH]1` (stereo not shown) [Example 344, 5-[8-(7-hydroxy-5-azaspiro[2.4]heptan-5-yl)imidazo[1,2-b]pyridazin-6-yl]-1H-pyrimidine-2,4-dione], a half-maximal effect in experiment [1] (EC50) was put at 97 nM. For the same compound, the IC50 in experiment [2] is 38.4 nM.

In experiment [1], `O=c1[nH]cc(-c2cc(N3CC(Oc4ccc(C(F)(F)F)cn4)C4(CC4)C3)c3nccn3n2)c(=O)[nH]1` (stereo not shown) [Example 345, 5-[8-[7-[[5-(trifluoromethyl)-2-pyridyl]oxy]-5-azaspiro[2.4]heptan-5-yl]imidazo[1,2-b]pyridazin-6-yl]-1H-pyrimidine-2,4-dione] registered an EC50 of 98 nM. Besides, inhibition in experiment [2] was half-maximal at 10.2 nM (IC50).

Regarding `O=c1[nH]cc(-c2cc(N3CC(c4ccccc4)C(F)(F)C3)c3nccn3n2)c(=O)[nH]1` (stereo not shown) [Example 346, 5-(8-(3,3-difluoro-4-phenylpyrrolidin-1-yl)imidazo[1,2-b]pyridazin-6-yl)pyrimidine-2,4(1H,3H)-dione], the midpoint of the response in experiment [1], the EC50, lay at 24.4 nM. In experiment [2], this compound returned an IC50 of 6.08 nM.

`O=c1[nH]cc(-c2cc(N3CC[C@@H](OC(F)F)C3)c3nccn3n2)c(=O)[nH]1` [Example 347, (R)-5-(8-(3-(difluoromethoxy)pyrrolidin-1-yl)imidazo[1,2-b]pyridazin-6-yl)pyrimidine-2,4(1H,3H)-dione] gave an EC50 in experiment [1] of 11.9 nM. Half-maximal inhibition in experiment [2] (IC50) was put at 4.39 nM.

`O=c1[nH]cc(-c2cc(N3CC[C@H](OC(F)F)C3)c3nccn3n2)c(=O)[nH]1` [Example 348, (S)-5-(8-(3-(difluoromethoxy)pyrrolidin-1-yl)imidazo[1,2-b]pyridazin-6-yl)pyrimidine-2,4(1H,3H)-dione] gave an EC50 in experiment [1] of 121 nM. Further, in experiment [2], half-maximal inhibition (IC50) required 54 nM.

In the case of `COC1CN(c2cc(-c3c[nH]c(=O)[nH]c3=O)nn3ccnc23)CC12CC2` (stereo not shown) [Example 349, 5-(8-(7-methoxy-5-azaspiro[2.4]heptan-5-yl)imidazo[1,2-b]pyridazin-6-yl)pyrimidine-2,4(1H,3H)-dione], the EC50 in experiment [1] came out at 124 nM. Besides, half-maximal inhibition in experiment [2] (IC50) required 148 nM.

In turn, `O=c1[nH]cc(-c2cc(N3CC(F)(F)C4(CC4)C3)n3nccc3n2)c(=O)[nH]1` [Example 350, 5-(7-(7,7-difluoro-5-azaspiro[2.4]heptan-5-yl)pyrazolo[1,5-a]pyrimidin-5-yl)pyrimidine-2,4(1H,3H)-dione] returned an EC50 in experiment [1] of 99.3 nM. The IC50 in experiment [2] is 12 nM.

Take `O=c1[nH]cc(-c2cc(N3CC(F)(F)C(F)(F)C3)c3ncc(F)n3n2)c(=O)[nH]1` [Example 351, 5-(3-fluoro-8-(3,3,4,4-tetrafluoropyrrolidin-1-yl)imidazo[1,2-b]pyridazin-6-yl)pyrimidine-2,4(1H,3H)-dione]: the response in experiment [1] was half-maximal at 56.4 nM (EC50). This compound displayed an IC50 in experiment [2] of 10.6 nM.

The compound `O=c1[nH]cc(-c2cc(N3C[C@@H]4[C@H](C3)[C@H]4C(F)(F)F)c3nccn3n2)c(=O)[nH]1` [Example 352, 5-(8-((1R,5S,6r)-6-(trifluoromethyl)-3-azabicyclo[3.1.0]hexan-3-yl)imidazo[1,2-b]pyridazin-6-yl)pyrimidine-2,4(1H,3H)-dione] showed an EC50 in experiment [1] of 1000 nM. In experiment [2], this compound registered an IC50 of more than 250 nM.

`O=c1[nH]cc(-c2cc(N3CCC(C(F)(F)F)(C(F)(F)F)C3)c3nccn3n2)c(=O)[nH]1` [Example 353, 5-(8-(3,3-bis(trifluoromethyl)pyrrolidin-1-yl)imidazo[1,2-b]pyridazin-6-yl)pyrimidine-2,4(1H,3H)-dione]: the midpoint of the response in experiment [1], the EC50, lay at 109 nM. Further, half-maximal inhibition in experiment [2] (IC50) was put at 69.6 nM.

In experiment [1], `N#CC12CC1CN(c1cc(-c3c[nH]c(=O)[nH]c3=O)nn3ccnc13)C2` (stereo not shown) [Example 354, 3-(6-(2,4-dioxo-1,2,3,4-tetrahydropyrimidin-5-yl)imidazo[1,2-b]pyridazin-8-yl)-3-azabicyclo[3.1.0]hexane-1-carbonitrile] returned an EC50 of 401 nM. For the same compound, the IC50 in experiment [2] worked out at 90.8 nM.

In experiment [1], `O=c1[nH]cc(-c2cc(N3CC4CC4(F)C3)c3nccn3n2)c(=O)[nH]1` (stereo not shown) [Example 355, 5-(8-(1-fluoro-3-azabicyclo[3.1.0]hexan-3-yl)imidazo[1,2-b]pyridazin-6-yl)pyrimidine-2,4(1H,3H)-dione] gave an EC50 of 14.5 nM. In addition, half-maximal inhibition in experiment [2] (IC50) required 7.56 nM.

For the compound `O=c1[nH]cc(-c2cc(N3CC(F)(F)C(F)(F)C3)n3ncnc3n2)c(=O)[nH]1` [Example 356, 5-(7-(3,3,4,4-tetrafluoropyrrolidin-1-yl)-[1,2,4]triazolo[1,5-a]pyrimidin-5-yl)pyrimidine-2,4(1H,3H)-dione], the response in experiment [1] was half-maximal at 916 nM (EC50). For the same compound, the IC50 in experiment [2] is more than 250 nM.

Compound `O=c1[nH]cc(-c2cc(N3CC(F)(F)C4(CC4)C3)n3ncnc3n2)c(=O)[nH]1` [Example 357, 5-(7-(7,7-difluoro-5-azaspiro[2.4]heptan-5-yl)-[1,2,4]triazolo[1,5-a]pyrimidin-5-yl)pyrimidine-2,4(1H,3H)-dione] yielded an EC50 in experiment [1] of 402 nM. The compound further displayed an IC50 in experiment [2] of more than 250 nM.

`O=c1[nH]cc(-c2cc(N3CC(F)(F)C(F)(F)C3)n3nccc3n2)c(=O)[nH]1` [Example 358, 5-(7-(3,3,4,4-tetrafluoropyrrolidin-1-yl)pyrazolo[1,5-a]pyrimidin-5-yl)pyrimidine-2,4(1H,3H)-dione]: the EC50 in experiment [1] came to 82.2 nM. For the same compound, the IC50 in experiment [2] is 27.8 nM.

In experiment [1], `O=c1[nH]cc(-c2cc([C@H]3C[C@@H]3c3ncc(Br)cn3)c3nccn3n2)c(=O)[nH]1` [Example 380, 5-(8-((1S,2S)-2-(5-bromopyrimidin-2-yl)cyclopropyl)imidazo[1,2-b]pyridazin-6-yl)pyrimidine-2,4(1H,3H)-dione] displayed an EC50 of 14.3 nM. The compound further yielded an IC50 in experiment [2] of 3.43 nM.

The compound `O=C1N(CC(F)(F)F)c2cc([C@H]3C[C@@H]3c3cc(-c4c[nH]c(=O)[nH]c4=O)nn4c(F)cnc34)ccc2C12CC2` [Example 381, 5-(3-fluoro-8-((1S,2S)-2-(2′-oxo-1′-(2,2,2-trifluoroethyl)spiro[cyclopropane-1,3′-indolin]-6′-yl)cyclopropyl)imidazo[1,2-b]pyridazin-6-yl)pyrimidine-2,4(1H,3H)-dione] displayed an EC50 in experiment [1] of 0.16 nM. For the same compound, the IC50 in experiment [2] is 0.69 nM.

Compound `O=C1N(CC(F)(F)F)c2cc([C@H]3C[C@@H]3c3cc(-c4c[nH]c(=O)[nH]c4=O)nn4ccnc34)ccc2C12CCC2` [Example 384, 5-(8-((1S,2S)-2-(2′-oxo-1′-(2,2,2-trifluoroethyl)spiro[cyclobutane-1,3′-indolin]-6′-yl)cyclopropyl)imidazo[1,2-b]pyridazin-6-yl)pyrimidine-2,4(1H,3H)-dione] came in with an EC50 in experiment [1] of 0.24 nM. For the same compound, in experiment [2], the IC50 is 1.27 nM.

With `O=C1N(CC(F)(F)F)c2cc([C@H]3C[C@@H]3c3cc(-c4c[nH]c(=O)[nH]c4=O)nn4c(F)cnc34)ccc2C12CCCC2` [Example 385, 5-(3-fluoro-8-((1S,2S)-2-(2′-oxo-1′-(2,2,2-trifluoroethyl)spiro[cyclopentane-1,3′-indolin]-6′-yl)cyclopropyl)imidazo[1,2-b]pyridazin-6-yl)pyrimidine-2,4(1H,3H)-dione], the EC50 in experiment [1] was 0.25 nM. Also, it took 0.68 nM to reach half-maximal inhibition in experiment [2] (IC50).

For the compound `O=C1N(CC(F)(F)F)c2cc([C@H]3C[C@@H]3c3cc(-c4c[nH]c(=O)[nH]c4=O)nn4c(F)cnc34)ccc2C12CCC2` [Example 386, 5-(3-fluoro-8-((1S,2S)-2-(2′-oxo-1′-(2,2,2-trifluoroethyl)spiro[cyclobutane-1,3′-indolin]-6′-yl)cyclopropyl)imidazo[1,2-b]pyridazin-6-yl)pyrimidine-2,4(1H,3H)-dione], the concentration for a half-maximal effect (EC50) in experiment [1] turned out to be 0.28 nM. This compound yielded an IC50 in experiment [2] of 0.92 nM.

With `O=C1N(CC(F)(F)F)c2cc([C@H]3C[C@@H]3c3cc(-c4c[nH]c(=O)[nH]c4=O)nn4ccnc34)ccc2C12CCCC2` [Example 387, 5-(8-((1S,2S)-2-(2′-oxo-1′-(2,2,2-trifluoroethyl)spiro[cyclopentane-1,3′-indolin]-6′-yl)cyclopropyl)imidazo[1,2-b]pyridazin-6-yl)pyrimidine-2,4(1H,3H)-dione], the EC50 in experiment [1] worked out at 0.36 nM. In experiment [2], this compound showed an IC50 of 1.27 nM.

For `O=C1N(CC(F)(F)F)c2cc([C@H]3C[C@@H]3c3cc(-c4c[nH]c(=O)[nH]c4=O)nn4c(Cl)cnc34)ccc2C12CC2` [Example 388, 5-(3-chloro-8-((1S,2S)-2-(2′-oxo-1′-(2,2,2-trifluoroethyl)spiro[cyclopropane-1,3′-indolin]-6′-yl)cyclopropyl)imidazo[1,2-b]pyridazin-6-yl)pyrimidine-2,4(1H,3H)-dione], it took 0.21 nM to reach a half-maximal effect in experiment [1] (EC50). The same compound yielded an IC50 in experiment [2] of 0.41 nM.
